Entries after “also recorded” stand apart in the source; their conditions may differ. Some results are limits rather than exact numbers.

Consider five compounds from patent publication US10048272B2, “High-affinity small molecule formylpeptide receptor ligands from screening of combinatorial mixture-based libraries” (STC.UNM, priority 2013, dated 2018).

Assay [1] addresses T1, FPR1 (Homo sapiens, UniProt P21462).
T1 sequence (P21462 1-350): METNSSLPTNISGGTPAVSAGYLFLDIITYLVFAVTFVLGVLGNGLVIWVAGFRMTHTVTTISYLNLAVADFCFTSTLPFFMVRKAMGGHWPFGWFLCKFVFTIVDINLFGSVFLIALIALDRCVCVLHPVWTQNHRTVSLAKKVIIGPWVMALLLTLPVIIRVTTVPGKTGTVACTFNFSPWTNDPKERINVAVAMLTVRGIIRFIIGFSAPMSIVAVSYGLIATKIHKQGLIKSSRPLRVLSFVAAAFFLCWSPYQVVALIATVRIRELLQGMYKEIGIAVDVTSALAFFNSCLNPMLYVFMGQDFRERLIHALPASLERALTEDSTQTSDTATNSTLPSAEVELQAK
The experiment in a line: Duplex flow cytometry receptor binding assay (WPep-FITC fluorescent ligand competition), U937/FPR1 cells. To be noted: for Ki: WPep-FITC displacement, U937/FPR1 cells. Also on record: expressed in transfected cells; host or cells: U937 cells (U937/FPR1). The protocol:
Flow cytometry receptor binding assay. The assay was performed in a “duplex” format in which U937/FPR1 cells were tested together with RBL/FPR2 cells as previously described (Young, et al., 2009)(PubChem Summary AIDs 805 and 1202). The FPR1-expressing cells were stained with a red-fluorescent dye, FuraRed™ allowing them to be distinguished from the FPR2-expressing cells during flow cytometric analysis. A fluorescein label was conjugated to the lysine residue of the WPep peptide (WKYMVm) to produce a fluorescent ligand (WPep-FITC) that bound both FPR1 and FPR2. […] Assays were performed in polystyrene 384-well plates with small volume wells (Greiner #784101). Additions to wells were in sequence as follows: (1) test compounds and control reagents (5 ul/well); (2) the combined suspension of U937/FPR1 and RBL/FPR2 cells (5 ul/well) and; (3) (after 30 min, 4° C. incubation) WPep-FITC (5 ul/well). After an additional 45 min, 4° C. incubation, plates were immediately analyzed using flow cytometry. The assay response range was defined by replicate control wells containing unlabeled receptor-blocking peptide (positive control) or buffer (negative control). fMLFF was used as the FPR1-blocking peptide and unlabeled WPep as the FPR2-blocking peptide. Final concentration of WPep-FITC was 5 nM. The assay was homogeneous in that cells, compounds and fluorescent peptide were added in sequence and the wells subsequently analyzed without intervening wash steps. The HyperCyt™ high-throughput flow-cytometry platform (Kuckuck, et al., 2001; Ramirez, et al., 2003) was used to sequentially sample cells from wells of 384-well microplates (2 ul/sample) for presentation to a CyAn flow cytometer (Beckman-Coulter) at a rate of 40 samples/min. Fluorescence was excited at 488 nm and detected with 530/40 and 680/30 optical bandpass filters for WPep-FITC and FuraRed™, respectively. Test compound inhibition of fluorescent peptide binding was calculated as percent inhibition. WPep-FITC fluorescence intensity measurements of cells from control wells were also used to calculate Z′ factors (Zhang, et al., 1999), which ranged between 0.6 and 0.8 for each assay.
Dose response determinations. Fluorescent ligand competition dose response assays were performed essentially as described for single concentration assays except that test compounds were initially tested at a starting concentration of 10 mM in DMSO and serially diluted 1:3 to produce final concentration ranging from 67 μM to 0.1 nM. The resulting ligand competition curves were fitted by Prism software (GraphPad Software, Inc., San Diego, Calif.) using nonlinear least-squares regression in sigmoidal dose response model with variable slope, also known as the four parameter logistic equation. […]
(§1) FPR expression ranged from 100,000 to 200,000 receptors per cell in different assays as determined by comparison to standard curves generated with Fluorescein Reference Standard Microbeads (Bangs Laboratories, Fishers, Ind.). […] To account for effects of possible ligand depletion at the higher receptor concentrations, Ki values were calculated from IC50 estimates by the method of Munson and Rodbard (Munson and Rodbard, 1988): Ki=Kd×[y0/(y0+2]+IC50/{1+[p*×(y0+2)]/[2×Kd×(y0+1)]+y0} in which y0 is the initial bound-to-free concentration ratio for the fluorescent ligand, p* is the added concentration of fluorescent ligand and Kd is the dissociation constant for the fluorescent ligand.
In general terms: In flow cytometry, cells or beads pass a laser one at a time.

The target of assay [2] is T1, FPR1. Briefly: Intracellular calcium mobilization assay, FPR1 cells (agonist and antagonist determinations). The assay is classed as cell-based. Details: expressed in transfected cells; host or cells: U937 cells (U937/FPR1). To be noted: for Functional activity in FPR1-mediated intracellular Ca2+ response (agonist/antagonist): result in words. The protocol: (§2) Intracellular calcium mobilization assays. Intracellular calcium mobilization assays were performed as previously described with modifications (Edwards, et al., 2005). Briefly, cells were collected by centrifugation (200×g, 10 min, 24° C.) and suspended at 10^6/ml in 1 ml PBS (Ca^2+, Mg^2+ free). Cells were added with 210 nM Fluo4 (FPR2 cells) or with a combination of 210 nM Fluo4 and 210 nM FuraRed (FPR1 cells). After incubation for 30 min at 24° C. cells were washed with 1 ml PBS, suspended in 1 ml TCM (RPMI, 10% FBS) and stored in the dark at 24° C. until used in assays. For test compound agonist determinations, 50 μL from FPR1 and FPR2 cell suspensions were combined, analyzed 10 s in an Accuri C6 flow cytometer (BD Biosciences) to determine baseline Fluo4 fluorescence in the FL1 channel (530/20 nm), then added with 50 μL containing test compounds and analyzed an additional 110 s to evaluate changes in Fluo4 fluorescence intensity. During the analysis FPR1 cells were distinguished from FPR2 cells on the basis of FuraRed fluorescence intensity detected in the FL3 channel ([…]). The innate calcium response was quantified as the maximum % of cells that exceeded the baseline Fluo4 fluorescence intensity over the course of the analysis. These responses were normalized to the innate calcium responses observed in the presence of 11 nM control peptides: 4pep for FPR1 cells and Wpep for FPR2 cells as follows: Normalized Calcium Response (%)=100×innate response % to test compound/innate response % to control peptide.
(§3) For test compound antagonist determinations, 10 μL test compound was added to the combined FPR1/FPR2 cell mixture and incubated 5 min at 24° C. prior to assessing the innate calcium response to subsequent addition of fMLFF or Wpep peptide. In these determinations, fMLFF and Wpep were used at concentrations that produced 90% of the maximal intracellular calcium response (EC90), and responses were normalized with respect to the innate response to each control peptide observed in the absence of test compounds.
(§4) Intracellular Ca^2+ dose response curves were also fitted using nonlinear least-squares regression in a sigmoidal dose response model with variable slope. Curve fit statistics were used to determine the concentration of added test compound competitor that inhibited Ca^2+ responses by 50 percent (IC50) for antagonists or effected increases in Ca^2+ response by 50% (EC50) for agonists. Since responses were normalized relative to control stimuli the top and bottom of the fitted curves were fixed at 100 and 0.
(Calcium flux is commonly read through the fluorescence of an indicator in the cells.)

The target in assay [3] is T2, FPR2 (Homo sapiens, UniProt P25090).
T2 sequence (P25090 1-351): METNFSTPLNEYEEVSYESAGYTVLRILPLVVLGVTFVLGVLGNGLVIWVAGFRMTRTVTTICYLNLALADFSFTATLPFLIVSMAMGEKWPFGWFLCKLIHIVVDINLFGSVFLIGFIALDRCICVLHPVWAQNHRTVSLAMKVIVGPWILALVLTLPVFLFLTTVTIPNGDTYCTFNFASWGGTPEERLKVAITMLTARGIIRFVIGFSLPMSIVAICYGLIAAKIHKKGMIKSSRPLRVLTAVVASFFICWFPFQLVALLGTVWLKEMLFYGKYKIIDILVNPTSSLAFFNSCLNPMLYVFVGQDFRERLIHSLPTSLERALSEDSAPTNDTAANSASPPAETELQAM
Briefly: Intracellular calcium mobilization assay, FPR2 cells (agonist and antagonist determinations). The assay is classed as cell-based. Details: expressed in transfected cells. The conditions noted are these: for Functional activity in FPR2-mediated intracellular Ca2+ response (agonist/antagonist): result in words. The protocol:
as §2, §3, §4

For assay [4], the target named is T2, FPR2. The experiment in a line: Duplex flow cytometry receptor binding assay (WPep-FITC fluorescent ligand competition), RBL/FPR2 cells. Details: expressed in transfected cells. To be noted: for FPR2 selectivity: FPR2 over FPR1. The protocol:
Flow cytometry receptor binding assay. The assay was performed in a “duplex” format in which U937/FPR1 cells were tested together with RBL/FPR2 cells as previously described (Young, et al., 2009)(PubChem Summary AIDs 805 and 1202). The FPR1-expressing cells were stained with a red-fluorescent dye, FuraRed™ allowing them to be distinguished from the FPR2-expressing cells during flow cytometric analysis. A fluorescein label was conjugated to the lysine residue of the WPep peptide (WKYMVm) to produce a fluorescent ligand (WPep-FITC) that bound both FPR1 and FPR2. […] Assays were performed in polystyrene 384-well plates with small volume wells (Greiner #784101). Additions to wells were in sequence as follows: (1) test compounds and control reagents (5 ul/well); (2) the combined suspension of U937/FPR1 and RBL/FPR2 cells (5 ul/well) and; (3) (after 30 min, 4° C. incubation) WPep-FITC (5 ul/well). After an additional 45 min, 4° C. incubation, plates were immediately analyzed using flow cytometry. The assay response range was defined by replicate control wells containing unlabeled receptor-blocking peptide (positive control) or buffer (negative control). fMLFF was used as the FPR1-blocking peptide and unlabeled WPep as the FPR2-blocking peptide. Final concentration of WPep-FITC was 5 nM. The assay was homogeneous in that cells, compounds and fluorescent peptide were added in sequence and the wells subsequently analyzed without intervening wash steps. […] Fluorescence was excited at 488 nm and detected with 530/40 and 680/30 optical bandpass filters for WPep-FITC and FuraRed™, respectively. Test compound inhibition of fluorescent peptide binding was calculated as percent inhibition. WPep-FITC fluorescence intensity measurements of cells from control wells were also used to calculate Z′ factors (Zhang, et al., 1999), which ranged between 0.6 and 0.8 for each assay. […]
as §1

In assay [5] the target is T2, FPR2. The conditions noted are these: literature; cited from earlier work.
Assay [6] deals with T1, FPR1. The conditions noted are these: literature; cited from earlier work.
[7] abbreviates: second compound of the printed pair relative to the first (1754-26 to 1754-56).

As for `CCCC[C@H](CN(C(=O)Nc1ccccc1)[C@@H](C)CNC(=O)Nc1ccccc1)N(CCCCc1ccccc1)C(=O)Nc1ccccc1` [1753-103], the Ki (commonly the dissociation constant of the complex between target and ligand, obtained from inhibition or displacement) at FPR1 [1] stood at 4 nM. Also, on FPR1 [2] (agonist determination, read-out: EC50, intracellular Ca2+ response, FPR1 agonist), the EC50 – broadly, the concentration needed to bring the measured effect to its halfway point – amounted to 131 nM. The “Response efficacy (fitted Top), Ca2+ response in FPR1 cells” value at FPR1 [2] (maximum response relative to control peptide 4pep (fMLFF)) came to 78%. For the same compound, the “Functional activity in FPR1-mediated intracellular Ca2+ response (agonist/antagonist)” value on FPR1 [2] is recorded as “selective partial agonists; also recorded: agonist”.

For the compound `CC(C)[C@H]1CNC(=O)C(=O)N1C[C@@H]1CCCN1C[C@@H](Cc1ccc2ccccc2c1)N1C[C@@H](Cc2ccc(O)cc2)N(CC2CCCCC2)C(=O)C1=O` [1754-31], the IC50 (in general, the concentration at which inhibition is half-maximal) at FPR2 [3] (antagonist determination, Wpep at EC90, read-out: IC50, intracellular Ca2+ response, FPR2 antagonist) is 81 nM. Moreover, the “Functional activity in FPR2-mediated intracellular Ca2+ response (agonist/antagonist)” value at FPR2 [3] is on record as “antagonist”. Further, the inhibition constant (Ki) at FPR2 [4] (WPep-FITC displacement, RBL/FPR2 cells) was 1 nM; at FPR1 [1], more than 10000 nM. In addition, the FPR2 selectivity is reported as > 10,000 nM at FPR2 [4] (as printed in b133 ('nM Ki')) and > 10,000 at FPR2 [4] (no unit). At FPR1 [1], the “Receptor selectivity, FPR1 versus FPR2, in ligand competition binding (in words)” value was “FPR2 selective”.

With `CCCC[C@H]1CNC(=O)C(=O)N1C[C@@H]1CCCN1C[C@@H](CCC)N1C[C@@H](Cc2ccc(O)cc2)N(CCc2ccc(-c3ccccc3)cc2)C(=O)C1=O` [1754-56], at FPR2 [3] (matched the Ki value of the ligand displacement assay), the “EC50, FPR2-mediated Ca2+ response, agonist (in words)” value is given as “low micromolar”. Besides, the “Response efficacy (fitted Top), Ca2+ response in FPR2 cells” value on FPR2 [3] (maximum response relative to control peptide Wpep (WKYMVm)) was 98%. Also, at FPR2 [3], the “Functional activity in FPR2-mediated intracellular Ca2+ response (agonist/antagonist)” value is “agonist”. In addition, on FPR2 [4] (setting [7]), the “Decrease of activity for FPR2 (potency difference, pKi)” value is 1.28 log units. Besides, the “Receptor selectivity, FPR1 versus FPR2, in ligand competition binding (in words)” value at FPR1 [1] is on record as “FPR1 selective”. Further, the “Increase of activity for FPR1 (potency difference, pKi)” value at FPR1 [1] (setting [7]) was determined as 1.36 log units. In addition, the “Functional activity in FPR1-mediated intracellular Ca2+ response (agonist/antagonist)” value on FPR1 [2] is on record as “antagonist”.

Take `CCCCOc1ccc(C(=O)NN2C(=O)c3ccccc3NC2c2ccc(OC)cc2)cc1` (centres unmarked) [Quin-C1]: the “Functional activity at FPR2 (in words)” value at FPR2 [5] was “agonist”.

With `CCCCOc1ccc(C(=O)NN2C(=O)c3ccccc3NC2c2ccc(O)cc2)cc1` (centres unmarked) [Quin-C7], at FPR1 [6], the “Functional activity at FPR1 (in words)” value was “antagonist”.
